For assay [1], the system named is HFD mice. The experiment in a line: gavage of peptides in HFD mice: triglyceride in feces, week 7. Format: in vivo, C57BL/6 mice. The conditions noted are these: gavage 2 pmol/g, feces of week 7, compared with HFD control group, FIG. 7B. As to the method:
Feces of each mouse may be collected in week 7, baked at 60° C. for 3 days to ensure complete dryness. Then, 1 mg of the feces may be collected and soaked in 1 ml of a mixed solution consisting of chloroform and methanol in a ratio of 2:1. The soaked feces may then be disrupted with a tissue homogenizer and centrifuged to obtain a supernatant. The supernatant may be detected for triglyceride by the Roche blood biochemical analyzer. Experimental results are shown in FIG. 7B. **: P<0.01, ***: P<0.001.
Feces of the mice may be collected in the 7th week of the experiment and baked at 60° C. for 3 days to ensure complete dryness. Then, 1 mg of the feces may be weighed and soaked in 1 ml of a mixed solution containing chloroform and methanol in a ratio of 2:1. The feces with the mixed solution may be disrupted by a tissue homogenizer and centrifuged to obtain a supernatant. The supernatant may be detected for triglyceride by the Roche blood biochemical analyzer.
Feces of the mice may be collected in the 7th week of the experiment and baked at 60° C. for 3 days to ensure complete dryness. Then, 1 mg of the feces may be weighed and soaked in 1 ml of a mixed solution containing chloroform and methanol in a ratio of 2:1.The feces with the mixed solution may be disrupted by a tissue homogenizer and centrifuged to obtain a supernatant. The supernatant may be detected for triglyceride by the Roche blood biochemical analyzer.
Feces of each mouse may be collected in the 7th week of the experiment, and baked at 60° C. for 3 days to ensure complete dryness. 1 mg of the feces may be weighed and soaked in 1 ml of a mixed solution containing chloroform and methanol in a ratio of 2:1. The feces in the mixed solution may be disrupted by a tissue homogenizer and centrifuged to obtain a supernatant. The supernatant may be detected for triglyceride by the Roche blood biochemical analyzer.

The test system of assay [2] is HFD mice. The assay can be described thus: gavage of peptides in HFD mice for 7 weeks: body weight. The format is in vivo, C57BL/6 mice. The conditions noted are these: gavage 2 pmol/g of body weight for 7 weeks, compared with HFD control group, FIG. 7A. An excerpt: Six-week-old male wild-type C57BL/6 mice may be divided into 6 groups, 6 mice in each group. Group #1 may be provided with ND, and groups #2 to #6 may be provided with HFD. Group #2 may be treated as a HFD control group. Groups #3 to #6 may be experimental groups, and mice ingroups #3 to #6 may be gavaged with OCN, ISAP1, ISAP2, and ISAP3 respectively at 2 pmol/g of body weight for 7 weeks. Body weight of each mouse may be monitored and measured once a week.
Six-week-old male wild-type C57BL/6 mice may be divided into 6 groups, 6 in each group. Group #1 may be provided with ND to be a ND control group, and groups #2 to #6 may be provided with HFD. Group #2 may be treated as a HFD control group. Groups #3 to #6 may be treated as experimental groups and may be gavaged with OCN, ISAP1, ISAP2, and ISAP3 respectively at 2 pmol/g of body weight daily for 7 weeks. Body weight may be monitored and measured once a week.
Six-week-old male wild-type C57BL/6 mice may be divided into 6 groups, 6 in each group. Group #1 may be provided with ND to be a ND control group, groups #2 to #6 may be provided with HFD. Group #2 may be treated as a HFD control group. Groups #3 to #6 may be treated as experimental groups, and may be gavaged with OCN, ISAP1, ISAP2, and ISAP3 respectively at 2 pmol/g of body weight daily for 7 weeks. A body weight of each mouse may be monitored and measured once a week.

Ends that are not written are not given here.

For the sequence YLGASVPSPDPLEPT [ISAP1], in assay [1], the “content (level) of triglyceride in the feces” value is listed as “significantly increased”. Moreover, the body weight result in assay [2] is given as “significant weight loss”.

For the origin of these results see US11098083B2, “Peptide that regulates fat metabolism and method for regulating fat metabolism” (SHENZHEN INSTITUTES OF ADVANCED TECHNOLOGY, priority 2017, dated 2021).
